Measured values: the SangsterLogP compilation

**Q.** Which logP does the source give for `FC(F)=CCl` here?
**A.** 1.52

**Q.** For `FCC(F)(F)F`, which logP is on record?
**A.** 1.06

**Q.** With `FC(Cl)(Cl)Cl` as the molecule, how does the logP read?
**A.** 2.26

**Q.** Which logP does the source give for `FCC(F)Cl` (stereo unspecified) here?
**A.** 1.62

**Q.** Which logP does the source give for `FC(F)=C(F)C(F)(F)F` here?
**A.** 1.98

**Q.** Which logP does the source give for `CC(F)(Cl)Cl` here?
**A.** 1.95

**Q.** With `FC(Cl)C(F)(F)F` (stereo unspecified) as the molecule, how does the logP read?
**A.** 1.75

**Q.** Which logP does the source give for `FCC(F)(F)Cl` here?
**A.** 1.45

**Q.** For `FC(F)(F)F`, which logP is on record?
**A.** 1.36

**Q.** For `FC(F)C(F)(F)F`, which logP is on record?
**A.** 1.45

**Q.** With `FC(C(F)(F)F)C(F)(F)F` as the molecule, how does the logP read?
**A.** 2.22
